Assay: xn = mol fraction of the nth substance listed, in the solute-free solvent

CCC(C)n1ncn(-c2ccc(N3CCN(c4ccc(OCC5COC(Cn6cncn6)(c6ccc(Cl)cc6Cl)O5)cc4)CC3)cc2)c1=O (configuration not stated) + ClCCl + CO
solubility (g/100 g solution)
Details	x2 = 0.04066	x2 = 0.08707	x2 = 0.1405	x2 = 0.2028	x2 = 0.2761	x2 = 0.364	x2 = 0.4709	x2 = 0.6041	x2 = 0.7744
288.15 K	0.122	0.244	0.561	1.46	4.71	10.6	19.3	28	31.4
293.15 K	0.147	0.294	0.696	1.84	5.79	12.5	21.2	29.4	32.6
298.15 K	0.177	0.355	0.855	2.28	6.97	14.5	23.2	30.8	33.9
303.15 K	0.212	0.426	1.04	2.83	8.37	16.8	25.3	32.2	35
308.15 K	0.253	0.508	1.26	3.5	9.95	19.3	27.6	33.6	36.2

CC(N)C(=O)O (configuration not stated) + O + CC(C)=O
solubility (g/100 g solution)
Details	x2 = 0.1	x2 = 0.2	x2 = 0.3	x2 = 0.4	x2 = 0.5	x2 = 0.6	x2 = 0.7	x2 = 0.8	x2 = 0.9
283.15 K	0.0237	0.0301	0.047	0.0557	0.0712	0.135	0.382	1.03	3.44
293.15 K	0.0407	0.0463	0.0511	0.0648	0.0791	0.17	0.457	1.34	4.17
303.15 K	0.047	0.053	0.0603	0.0794	0.0969	0.22	0.611	1.73	5.02
313.15 K	0.0547	0.0607	0.0696	0.0949	0.128	0.309	0.794	2.22	6.57
323.15 K	0.0629	0.0786	0.0878	0.138	0.193	0.484	1.14	3.18	8.13

Cc1ncc(C[n+]2csc(CCO)c2C)c(N)n1.O=[N+]([O-])[O-] + O + CC(C)=O
solubility (g/100 g solution)
Details	278.15 K	283.15 K	288.15 K	293.15 K	298.15 K	303.15 K	308.15 K	313.15 K
x2 = 0.3	0.0632	0.0724	0.0831	0.0951	0.118	0.138	0.161	0.193
x2 = 0.4	0.169	0.198	0.227	0.252	0.298	0.344	0.393	0.437
x2 = 0.5	0.394	0.441	0.498	0.556	0.639	0.733	0.842	0.951
x2 = 0.6	0.648	0.746	0.87	0.996	1.16	1.37	1.64	2
x2 = 0.7	1.08	1.24	1.45	1.69	1.98	2.3	2.69	3.23
x2 = 0.8	1.55	1.8	2.14	2.53	2.97	3.56	4.14	4.86
x2 = 0.9	1.85	2.17	2.54	3.11	3.62	4.28	5	5.96

Cc1ncc(C[n+]2csc(CCO)c2C)c(N)n1.O=[N+]([O-])[O-] + O + CC(C)O
solubility (g/100 g solution)
Details	278.15 K	283.15 K	288.15 K	293.15 K	298.15 K	303.15 K	308.15 K	313.15 K
x2 = 0.3	0.0345	0.0413	0.051	0.06	0.0744	0.093	0.115	0.151
x2 = 0.4	0.0937	0.119	0.15	0.172	0.199	0.243	0.297	0.385
x2 = 0.5	0.228	0.257	0.305	0.372	0.453	0.573	0.715	0.897
x2 = 0.6	0.364	0.439	0.552	0.705	0.814	1.01	1.28	1.57
x2 = 0.7	0.637	0.765	0.916	1.12	1.38	1.71	2.11	2.61
x2 = 0.8	0.968	1.15	1.39	1.74	2.15	2.63	3.14	3.84
x2 = 0.9	1.18	1.47	1.83	2.33	2.85	3.48	4.26	5.2

Source: the CheMixHub drug solubility set
